*1 amine or outer side, *2 acyl side, *3 side chain or, on linkers, in order; H or OH if unused. Where a SMILES comes first, the peptide text is derived from it. [ ]: non-standard residue; d: D form. X1 = O=C([C@H]1CCC[C@@H]1N[*:1])[*:2]
Assays:
Assay type in all cases: cell-based
[1] = target: T1, GLP-1R (Homo sapiens, UniProt P43220); assay: Signaling bias by Black-Leff operational model
[2] = target: T1, GLP-1R; conditions: HEK293 GloSensor cells transiently expressing GLP-1R
[3] = target: GLP-1R-RLuc8 / GFP^2-β-arrestin-2(R393E, R395E) (Homo sapiens, UniProt P43220); assay: β-arrestin-2 recruitment to GLP-1R, BRET assay in HEK293FT cells
[4] = target: GLP-1R-RLuc8 / GFP^2-β-arrestin-1 (Homo sapiens, UniProt P43220); assay: β-arrestin-1 recruitment to GLP-1R, BRET assay in HEK293FT cells
GLP-1R-RLuc8 / GFP^2-β-arrestin-1, sequence (P43220 24-463): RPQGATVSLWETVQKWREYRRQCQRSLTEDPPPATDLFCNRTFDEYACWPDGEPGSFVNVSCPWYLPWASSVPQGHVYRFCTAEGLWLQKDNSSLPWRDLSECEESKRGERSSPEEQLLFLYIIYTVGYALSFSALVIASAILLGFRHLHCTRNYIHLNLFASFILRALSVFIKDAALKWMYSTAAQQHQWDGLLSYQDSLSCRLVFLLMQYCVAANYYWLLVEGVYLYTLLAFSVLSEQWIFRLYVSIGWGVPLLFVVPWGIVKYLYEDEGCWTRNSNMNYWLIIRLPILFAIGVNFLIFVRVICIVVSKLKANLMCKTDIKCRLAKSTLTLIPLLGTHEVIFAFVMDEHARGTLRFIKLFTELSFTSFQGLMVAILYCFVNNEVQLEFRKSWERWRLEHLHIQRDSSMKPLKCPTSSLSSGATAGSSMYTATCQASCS
GLP-1R-RLuc8 / GFP^2-β-arrestin-1, sequence (P49407 whole entry partner): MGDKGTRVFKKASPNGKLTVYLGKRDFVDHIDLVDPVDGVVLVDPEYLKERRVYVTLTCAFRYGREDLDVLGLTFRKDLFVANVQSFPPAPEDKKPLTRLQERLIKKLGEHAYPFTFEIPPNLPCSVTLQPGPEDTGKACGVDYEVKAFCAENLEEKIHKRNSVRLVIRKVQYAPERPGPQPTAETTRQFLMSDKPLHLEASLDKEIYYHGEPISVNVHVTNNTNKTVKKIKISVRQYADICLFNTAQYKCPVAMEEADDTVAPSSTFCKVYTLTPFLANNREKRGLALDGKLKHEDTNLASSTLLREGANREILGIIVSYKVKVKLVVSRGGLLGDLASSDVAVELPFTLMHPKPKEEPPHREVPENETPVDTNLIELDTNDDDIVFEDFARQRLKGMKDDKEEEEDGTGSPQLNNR

T1 sequence (P43220 24-463, species assumed): as the sequence (P43220 24-463) above
GLP-1R-RLuc8 / GFP^2-β-arrestin-2(R393E, R395E), sequence (P43220 24-463, stated change not applied): as the sequence (P43220 24-463) above

| SMILES | Signal bias relative to GLP-1, in words [1] | GLP-1R activation by cAMP production, in words [2] | β-arrestin-2 recruitment to the GLP-1R, in words [3] | β-arrestin-1 recruitment to the GLP-1R, in words [4] |
| --- | --- | --- | --- | --- |
| CC[C@H](C)[C@H](NC(=O)[C@H](Cc1ccccc1)NC(=O)[C@H](CCC(=O)O)NC(=O)[C@H]1CCC[C@@H]1NC(=O)[C@H](C)NC(=O)[C@H](C)NC(=O)[C@H](CCC(N)=O)NC(=O)[C@H]1CCC[C@@H]1NC(=O)[C@H](CCC(=O)O)NC(=O)[C@H](CC(C)C)NC(=O)[C@H](Cc1ccc(O)cc1)NC(=O)[C@H]1CCC[C@@H]1NC(=O)[C@H](CO)NC(=O)[C@@H](NC(=O)[C@H](CC(=O)O)NC(=O)[C@H](CO)NC(=O)[C@@H](NC(=O)[C@H](Cc1ccccc1)NC(=O)[C@@H](NC(=O)CNC(=O)[C@H](CCC(=O)O)NC(=O)[C@H](C)NC(=O)[C@@H](N)Cc1c[nH]cn1)[C@@H](C)O)[C@@H](C)O)C(C)C)C(=O)N[C@H]1CCC[C@@H]1C(=O)N[C@@H](Cc1c[nH]c2ccccc12)C(=O)N[C@@H](CC(C)C)C(=O)N[C@H](C(=O)N[C@H]1CCC[C@@H]1C(=O)NCC(=O)N[C@@H](CCCNC(=N)N)C(N)=O)C(C)C [1b] (H-HAEGTFTSDVS[X1]YLE[X1]QAA[X1]EFI[X1]WLV[X1]GR-NH2; N-terminus assumed) | biased toward β-arrestin-2 recruitment vs. cAMP production | – | – | – |
| CC[C@H](C)[C@H](NC(=O)[C@H](Cc1ccccc1)NC(=O)C[C@H](CCC(=O)O)NC(=O)[C@H](CCCCN)NC(=O)[C@H](C)NC(=O)[C@H](C)NC(=O)C[C@H](CCC(N)=O)NC(=O)CNC(=O)[C@H](CCC(=O)O)NC(=O)[C@H](CC(C)C)NC(=O)C[C@H](Cc1ccc(O)cc1)NC(=O)[C@H](CO)NC(=O)[C@H](CO)NC(=O)[C@@H](NC(=O)[C@H](CC(=O)O)NC(=O)[C@H](CO)NC(=O)[C@@H](NC(=O)[C@H](Cc1ccccc1)NC(=O)[C@@H](NC(=O)CNC(=O)[C@H](CCC(=O)O)NC(=O)[C@H](C)NC(=O)[C@@H](N)Cc1c[nH]cn1)[C@@H](C)O)[C@@H](C)O)C(C)C)C(=O)N[C@@H](C)C(=O)N[C@H](CC(=O)N[C@@H](CC(C)C)C(=O)N[C@H](C(=O)N[C@@H](CCCCN)C(=O)NCCC(=O)N[C@@H](CCCNC(=N)N)C(N)=O)C(C)C)Cc1c[nH]c2ccccc12 [2a] | modestly biased toward cAMP production relative to β-arrestin-1 recruitment | – | – | – |
| CC[C@H](C)[C@H](NC(=O)[C@H](Cc1ccccc1)NC(=O)[C@H]1CCC[C@@H]1NC(=O)[C@H](CCCCN)NC(=O)[C@H](C)NC(=O)[C@H](C)NC(=O)[C@H]1CCC[C@@H]1NC(=O)CNC(=O)[C@H](CCC(=O)O)NC(=O)[C@H](CC(C)C)NC(=O)[C@H]1CCC[C@@H]1NC(=O)[C@H](CO)NC(=O)[C@H](CO)NC(=O)[C@@H](NC(=O)[C@H](CC(=O)O)NC(=O)[C@H](CO)NC(=O)[C@@H](NC(=O)[C@H](Cc1ccccc1)NC(=O)[C@@H](NC(=O)CNC(=O)[C@H](CCC(=O)O)NC(=O)[C@H](C)NC(=O)[C@@H](N)Cc1c[nH]cn1)[C@@H](C)O)[C@@H](C)O)C(C)C)C(=O)N[C@@H](C)C(=O)N[C@H]1CCC[C@@H]1C(=O)N[C@@H](CC(C)C)C(=O)N[C@H](C(=O)N[C@@H](CCCCN)C(=O)N[C@H]1CCC[C@@H]1C(=O)N[C@@H](CCCNC(=N)N)C(N)=O)C(C)C [2b] (H-HAEGTFTSDVSS[X1]LEG[X1]AAK[X1]FIA[X1]LVK[X1]R-NH2; N-terminus assumed) | smaller bias toward β-arrestin-2 vs. cAMP production | – | – | – |
| CC[C@H](C)[C@H](NC(=O)[C@H]1CCC[C@@H]1NC(=O)[C@H](CCC(=O)O)NC(=O)[C@H](CCCCN)NC(=O)[C@H](C)NC(=O)[C@H]1CCC[C@@H]1NC(=O)[C@H](CCC(N)=O)NC(=O)CNC(=O)[C@H](CCC(=O)O)NC(=O)[C@H]1CCC[C@@H]1NC(=O)[C@H](Cc1ccc(O)cc1)NC(=O)[C@H](CO)NC(=O)[C@H](CO)NC(=O)[C@@H](NC(=O)[C@H](CC(=O)O)NC(=O)[C@H](CO)NC(=O)[C@@H](NC(=O)[C@H](Cc1ccccc1)NC(=O)[C@@H](NC(=O)CNC(=O)[C@H](CCC(=O)O)NC(=O)[C@H](C)NC(=O)[C@@H](N)Cc1c[nH]cn1)[C@@H](C)O)[C@@H](C)O)C(C)C)C(=O)N[C@@H](C)C(=O)N[C@@H](Cc1c[nH]c2ccccc12)C(=O)N[C@H]1CCC[C@@H]1C(=O)N[C@H](C(=O)N[C@@H](CCCCN)C(=O)NCC(=O)N[C@H]1CCC[C@@H]1C(=O)NCC(N)=O)C(C)C [3b] (H-HAEGTFTSDVSSY[X1]EGQ[X1]AKE[X1]IAW[X1]VKG[X1]G-NH2; N-terminus assumed) | – | no activation of the GLP-1R could be detected | inability to induce recruitment of either β-arrestin | inability to induce recruitment of either β-arrestin |
| CC(C)C[C@H](NC(=O)[C@H](Cc1ccc(O)cc1)NC(=O)[C@H](CO)NC(=O)[C@H]1CCC[C@@H]1NC(=O)[C@@H](NC(=O)[C@H](CC(=O)O)NC(=O)[C@H](CO)NC(=O)[C@@H](NC(=O)[C@H](Cc1ccccc1)NC(=O)[C@@H](NC(=O)CNC(=O)[C@H](CCC(=O)O)NC(=O)[C@H](C)NC(=O)[C@@H](N)Cc1c[nH]cn1)[C@@H](C)O)[C@@H](C)O)C(C)C)C(=O)N[C@H]1CCC[C@@H]1C(=O)NCC(=O)N[C@@H](CCC(N)=O)C(=O)N[C@@H](C)C(=O)N[C@H]1CCC[C@@H]1C(=O)N[C@@H](CCCCN)C(=O)N[C@@H](CCC(=O)O)C(=O)N[C@@H](Cc1ccccc1)C(=O)N[C@H]1CCC[C@@H]1C(=O)N[C@@H](C)C(=O)N[C@@H](Cc1c[nH]c2ccccc12)C(=O)N[C@@H](CC(C)C)C(=O)N[C@H]1CCC[C@@H]1C(=O)N[C@@H](CCCCN)C(=O)NCC(=O)N[C@@H](CCCNC(=N)N)C(N)=O [4b] (H-HAEGTFTSDV[X1]SYL[X1]GQA[X1]KEF[X1]AWL[X1]KGR-NH2; N-terminus assumed) | balanced signaling behavior | – | – | – |
